Source: the Deep4Chem optical property database
Several values for one entry are separate records, joined by “and”; a condition that tells them apart may be missing. Equal values may be shown once. Blank lines part the entries; values can stand above or below the compound they belong to.

Assay: solvent given as SMILES

SMILES: CN(C)c1ccc(/C=C/c2nc3ccccc3s2)cc1
- absorption maximum (in C1CCCCC1): 384 nm
- absorption maximum (in C1CCOC1): 396 nm
- absorption maximum (in C1COCCO1): 393 nm
- absorption maximum (in CC#N): 401 nm
- absorption maximum (in CC(C)O): 394 nm
- absorption maximum (in CCCCCC): 384 nm
- absorption maximum (in CCCCCCC): 387 nm
- absorption maximum (in CCO): 396 nm
- absorption maximum (in CCOC(C)=O): 391 nm
- absorption maximum (in CCOCC): 390 nm
- absorption maximum (in CN(C)C=O): 402 nm
- absorption maximum (in CO): 397 nm
- absorption maximum (in CS(C)=O): 405 nm
- absorption maximum (in O): 402 nm
- absorption maximum (in OCC(O)CO): 409 nm

- absorption maximum (in ClC(Cl)Cl): 435 nm
SMILES: F[B-]1(F)OC(c2ccc(Br)cc2)=Cc2c3ccccc3c3ccccc3[n+]21

- absorption maximum (in ClCCl): 308 nm
SMILES: c1ccc(N(c2ccccc2)c2ccc(-n3ccc4cc(-c5ccc(C6(c7ccccc7)c7ccccc7-c7ccccc76)cc5)ccc43)cc2)cc1

- absorption maximum (in CO): 534 nm
- absorption maximum (in ClC(Cl)Cl): 557 nm
SMILES: Cc1nc2c(ccc3c2sc(/C=C/c2ccc(N(C)C)cc2)[n+]3C)s1

- absorption maximum (in C1CCOC1): 640 nm
- absorption maximum (in ClCCl): 634 nm
SMILES: F[B-]1(F)n2c(c3ccccc3c2-c2ccccc2)C=C2c3ccccc3C(c3ccccc3)=[N+]21

SMILES: N#Cc1nc(-c2ccc(N3c4ccccc4Oc4ccccc43)cc2)c(-c2ccc(N3c4ccccc4Oc4ccccc43)cc2)nc1C#N
- absorption maximum (in Cc1ccccc1): 473 nm

- absorption maximum (in ClCCl): 363 nm
SMILES: CCCCn1c(-c2ccc(-c3nnc(-c4ccc5ccccc5c4)o3)cc2)nc2c3ccccc3c3ccccc3c21

SMILES: CCCCCCN(CCCCCC)c1ccc(C#Cc2ccc(-c3ccc(C#Cc4ccc(N(CCCCCC)CCCCCC)cc4)cc3)cc2)cc1
- absorption maximum (in Cc1ccccc1): 374 nm

SMILES: O=P1(c2ccccc2)c2ccc(N3c4ccccc4Oc4ccccc43)cc2-c2cc(N3c4ccccc4Oc4ccccc43)ccc21
- absorption maximum (in Cc1ccccc1): 405 nm
- absorption maximum (in c1ccc2c(c1)c1ccccc1n2-c1ccc(-c2ccc(-n3c4ccccc4c4ccccc43)cc2)cc1): 404.2 nm

- absorption maximum (in CC#N): 387 nm
SMILES: C[n+]1ccc2c(ccc3c[n+](C)ccc32)c1

SMILES: CN(C)c1ccc(/C=C/c2cc(/C=C/c3ccc(N(C)C)cc3)nc(N)n2)cc1
- absorption maximum (in Cc1ccccc1): 414 nm
- absorption maximum (in ClC(Cl)Cl): 426 nm

- absorption maximum (in C1CCOC1): 397 nm
SMILES: CCCCCCCCCc1c2ccccc2cc2c1oc1c3c(c4ccccc4c12)-c1c(c2oc4cc5ccccc5cc4c2c2ccccc12)OCO3

- absorption maximum (in C1CCOC1): 403 nm
SMILES: CC1(C)c2cc(/C=C/c3nc(/C=C/c4ccc5c(c4)C(C)(C)c4cc(N(c6ccccc6)c6ccc7ccccc7c6)ccc4-5)nc(/C=C/c4ccc5c(c4)C(C)(C)c4cc(N(c6ccccc6)c6ccc7ccccc7c6)ccc4-5)n3)ccc2-c2ccc(N(c3ccccc3)c3ccc4ccccc4c3)cc21

- absorption maximum (in CN(C)C=O): 524 nm
SMILES: Nc1ccc(N2C(=O)c3ccc4c5ccc6c7c(ccc(c8ccc(c3c48)C2=O)c75)C(=O)NC6=O)cc1

- absorption maximum (in C1CCCCC1): 613 nm
- absorption maximum (in CCOC(C)=O): 607 nm
- absorption maximum (in CO): 605.5 nm
SMILES: Cc1ccccc1C1=C2C=c3c(oc4c3ccc3ccccc34)=[N+]2[B-](F)(F)n2c1cc1c3ccc4ccccc4c3oc12

- absorption maximum (in ClC(Cl)Cl): 390.62 nm
SMILES: CCCCCCn1c2cc(/C=C/c3ccccc3)ccc2c2ccc(/C=C/c3ccccc3)cc21

- absorption maximum (in CCO): 369 nm
SMILES: O=c1c2cc(F)c(O)cc2oc2cc(O)c(F)cc12

- absorption maximum (in C1CCCCC1): 327 nm
- absorption maximum (in CC#N): 327 nm
- absorption maximum (in CCO): 329 nm
- absorption maximum (in ClCCl): 329 nm
SMILES: O=P1(c2ccccc2)c2ccccc2-c2sc3ccccc3c21 (centres undefined)

SMILES: O=S(=O)(c1ccc(-c2ccc3c(c2)c2ccccc2n3-c2ccccc2)cc1)c1ccc(-c2ccc3c(c2)c2ccccc2n3-c2ccccc2)cc1
- absorption maximum (in Cc1ccccc1): 332 nm

- absorption maximum (in C1CCOC1): 361 nm
- absorption maximum (in C1COCCO1): 361 nm
- absorption maximum (in CC#N): 360 nm
- absorption maximum (in CCCCCO): 361 nm
- absorption maximum (in CCCCO): 360 nm
- absorption maximum (in CCCO): 361 nm
- absorption maximum (in CCO): 360 nm
- absorption maximum (in CO): 360 nm
- absorption maximum (in COCCOC): 361 nm
- absorption maximum (in ClC(Cl)Cl): 361 nm
- absorption maximum (in ClCCl): 361 nm
- absorption maximum (in OCCO): 361 nm
SMILES: COC(=O)c1c2ccccc2nc2ccccc12

- absorption maximum (in ClCCl): 341 nm
SMILES: Cc1ccc(-c2cccc3ncc(-c4ccccc4)n23)cc1

SMILES: CN(C)CCNc1ccc([N+](=O)[O-])cc1[N+](=O)[O-]
- absorption maximum (in C1CCCCC1): 334 nm
- absorption maximum (in C1CCOC1): 352 nm
- absorption maximum (in C1COCCO1): 348 nm
- absorption maximum (in CC#N): 352 nm
- absorption maximum (in CC(C)=O): 352 nm
- absorption maximum (in CCCCCC): 330 nm
- absorption maximum (in CCO): 348 nm
- absorption maximum (in CCOC(C)=O): 347 nm
- absorption maximum (in CN(C)C=O): 358 nm
- absorption maximum (in CO): 350 nm
- absorption maximum (in CS(C)=O): 363 nm
- absorption maximum (in Cc1ccccc1): 347 nm
- absorption maximum (in ClC(Cl)Cl): 350 nm
- absorption maximum (in ClCCl): 352 nm

- absorption maximum (in ClCCl): 457 nm
SMILES: CCCCCc1ccc(C#Cc2cc(C#Cc3ccc(CCCCC)cc3)c3ccc4c(C(=O)c5ccccc5)cc(C#Cc5ccc(CCCCC)cc5)c5ccc2c3c54)cc1

- absorption maximum (in C1CCOC1): 537 nm
SMILES: CCCc1ccc2c(c1)cc1n2B2c3c4c-1cccc4cc1cccc(c31)-c1cc3cc(CCC)ccc3n12

- absorption maximum (in ClCCl): 518 nm
SMILES: O=[N+]([O-])c1cccc2c1ccc1[n+]2[B-](F)(F)n2c-1cc1c3ccccc3c3ccccc3c12

- absorption maximum (in CC#N): 324 nm
- absorption maximum (in ClCCl): 336 nm
SMILES: CNC(=O)[C@H](C)NC(=O)c1cccc2c1C#Cc1c(NC(=O)[C@@H](NC(C)=O)C(C)C)cccc1OCCCO2

SMILES: CCCCN1C(=S)c2cccc3c(OC)ccc(c23)C1=S
- absorption maximum (in CC#N): 476 nm
- absorption maximum (in CS(C)=O): 483 nm
- absorption maximum (in Cc1ccccc1): 468 nm

SMILES: CC1=CC(C)=[N+]2C1=C(c1ccc(N3CCCCC3)cc1)c1c(C)cc(C)n1[B-]2(F)F
- absorption maximum (in C1CCOC1): 499 nm
- absorption maximum (in CC#N): 496 nm
- absorption maximum (in CC(=O)C(C)(C)C): 496 nm
- absorption maximum (in CC(C)=O): 495 nm
- absorption maximum (in CCCCCC): 500 nm
- absorption maximum (in CCOC(C)=O): 498 nm
- absorption maximum (in CO): 500 nm and 497 nm

- absorption maximum (in C1CCOC1): 354 nm
SMILES: c1cc2ccc1-c1ccc(cc1)-c1ccc(s1)-c1ccc(cc1)-c1ccc(cc1)-c1ccc(s1)-c1ccc(cc1)-c1ccc(cc1)-c1ccc(s1)-c1ccc(cc1)-c1ccc(cc1)-c1ccc-2s1

- absorption maximum (in ClC(Cl)Cl): 404 nm
SMILES: C[Si](C)(C)C#C[Si](c1c2ccccc2cc2ccccc12)(c1c2ccccc2cc2ccccc12)c1c2ccccc2cc2ccccc12

SMILES: Nc1ccc(-c2ccc(N)cc2)cc1
- absorption maximum (in C1CCOC1): 306 nm
- absorption maximum (in C1COCCO1): 289 nm
- absorption maximum (in CC#N): 286 nm
- absorption maximum (in CCCCCC): 279 nm
- absorption maximum (in CCOC(C)=O): 285 nm
- absorption maximum (in CN(C)C=O): 299 nm
- absorption maximum (in CO): 281 nm
- absorption maximum (in CS(C)=O): 292 nm
- absorption maximum (in Cc1ccccc1): 295 nm
- absorption maximum (in ClC(Cl)Cl): 305 nm
- absorption maximum (in ClCCl): 286 nm
- absorption maximum (in O): 281 nm

- absorption maximum (in ClCCl): 506 nm
SMILES: CN(C)c1ccc(C#Cc2cc(C#Cc3ccc(N(C)C)cc3)c3ccc4c(C#Cc5ccc(C(F)(F)F)cc5)cc(C#Cc5ccc(N(C)C)cc5)c5ccc2c3c54)cc1

- absorption maximum (in CC1CCCO1): 314 nm
SMILES: c1ccc2c(c1)-c1ccccc1C21c2ccccc2-c2ncccc21

- absorption maximum (in C1CCOC1): 353 nm
SMILES: N#Cc1c(N2CCCCC2)cc(-c2cccc3ccccc23)c2c1CCc1ccccc1-2

- absorption maximum (in CC#N): 375 nm
SMILES: Cc1ccc2nc3c(=O)[nH]c(=O)[nH]c3nc2c1C

- absorption maximum (in ClCCl): 615 nm
SMILES: CCCCN1C(=O)c2cc(Oc3ccc(C(C)(C)C)cc3)c3c4c(Oc5ccc(C(C)(C)C)cc5)cc5c(=O)[nH]/c(=C\c6ccccn6)c6cc(Oc7ccc(C(C)(C)C)cc7)c(c7c(Oc8ccc(C(C)(C)C)cc8)cc(c2c37)C1=O)c4c56

- absorption maximum (in ClCCl): 309 nm
SMILES: COc1ccc(N2c3c(sc4ccccc34)Sc3sc4ccccc4c32)cc1
